Literature values as cited in patent US20150038447A1, “ORGAN PROTECTION, PRESERVATION AND RECOVERY” (Hibernation Therapeutics, A KF LLC, priority 2007, published 2015).
pKi: −log10 of the molar value.

Experiments:
[1] = target: T1, NK(3) receptor (Homo sapiens, UniProt P29371); details: NK(1) versus NK(3)
T1 sequence (P29371 1-465): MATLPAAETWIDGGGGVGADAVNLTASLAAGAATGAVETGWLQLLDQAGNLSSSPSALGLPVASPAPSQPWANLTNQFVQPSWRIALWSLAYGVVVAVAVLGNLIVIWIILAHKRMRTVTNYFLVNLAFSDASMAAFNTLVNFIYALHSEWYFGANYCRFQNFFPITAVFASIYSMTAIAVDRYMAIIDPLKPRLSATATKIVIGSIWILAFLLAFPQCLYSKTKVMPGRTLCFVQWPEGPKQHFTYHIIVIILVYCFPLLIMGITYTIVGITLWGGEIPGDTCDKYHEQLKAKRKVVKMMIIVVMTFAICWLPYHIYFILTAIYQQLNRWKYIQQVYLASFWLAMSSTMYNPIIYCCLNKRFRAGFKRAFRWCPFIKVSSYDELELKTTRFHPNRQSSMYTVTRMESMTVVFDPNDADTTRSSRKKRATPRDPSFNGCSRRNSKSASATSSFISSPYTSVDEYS

[2] = target: human NK(1) receptor (Homo sapiens, UniProt P25103)
human NK(1) receptor, sequence (P25103 whole entry): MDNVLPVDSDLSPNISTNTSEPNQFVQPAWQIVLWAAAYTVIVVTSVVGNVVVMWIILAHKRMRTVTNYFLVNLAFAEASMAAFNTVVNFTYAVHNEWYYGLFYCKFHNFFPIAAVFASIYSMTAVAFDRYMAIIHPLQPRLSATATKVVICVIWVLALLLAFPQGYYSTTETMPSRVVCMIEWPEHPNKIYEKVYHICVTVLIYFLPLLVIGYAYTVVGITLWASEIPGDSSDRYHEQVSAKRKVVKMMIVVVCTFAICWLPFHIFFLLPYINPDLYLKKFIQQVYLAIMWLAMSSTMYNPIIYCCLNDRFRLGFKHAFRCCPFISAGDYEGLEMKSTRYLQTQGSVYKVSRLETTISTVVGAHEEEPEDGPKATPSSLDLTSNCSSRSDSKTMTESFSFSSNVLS

[3] = target: T2, NK(2) receptor (Homo sapiens, UniProt P21452); details: NK(1) versus NK(2)
T2 sequence (P21452 1-398): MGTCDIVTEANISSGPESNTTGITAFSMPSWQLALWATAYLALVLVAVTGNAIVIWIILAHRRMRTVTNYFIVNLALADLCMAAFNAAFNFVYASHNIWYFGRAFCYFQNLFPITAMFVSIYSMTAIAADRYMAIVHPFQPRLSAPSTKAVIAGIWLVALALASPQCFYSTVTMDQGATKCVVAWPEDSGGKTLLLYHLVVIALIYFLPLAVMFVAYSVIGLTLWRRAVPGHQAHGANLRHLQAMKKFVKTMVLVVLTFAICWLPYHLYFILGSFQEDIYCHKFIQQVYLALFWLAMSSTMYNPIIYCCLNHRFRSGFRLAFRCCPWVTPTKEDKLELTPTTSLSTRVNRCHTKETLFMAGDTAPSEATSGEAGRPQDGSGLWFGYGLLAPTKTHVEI

[4] = given orally and/or intravenous at 10, 25, 50, and 100 mg/kg body weight
[5] = target: T3, adenosine deaminase (Bos taurus, UniProt P56658); details: calf intestinal mucosa; read-out: Ki (competitive inhibitor of adenosine deaminase)
T3 construct: from tissue; host or cells: calf intestinal mucosa
T3 sequence (P56658 whole entry): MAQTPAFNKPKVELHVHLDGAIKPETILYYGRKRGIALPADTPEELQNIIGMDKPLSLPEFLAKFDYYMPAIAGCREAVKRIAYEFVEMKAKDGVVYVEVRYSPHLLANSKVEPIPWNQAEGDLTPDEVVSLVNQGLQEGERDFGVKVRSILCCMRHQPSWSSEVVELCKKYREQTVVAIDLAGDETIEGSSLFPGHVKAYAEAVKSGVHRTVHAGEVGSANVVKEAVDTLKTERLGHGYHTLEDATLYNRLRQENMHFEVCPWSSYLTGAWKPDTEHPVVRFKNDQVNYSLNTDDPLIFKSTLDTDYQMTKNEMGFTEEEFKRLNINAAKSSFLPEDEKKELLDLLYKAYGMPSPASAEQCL

[6] = 400 mg daily tablets
[7] = in vivo
[8] = tested on: anaesthetised rats; details: previous studies (Canyon and Dobson, 2004)

Cc1cccc(C)c1NC(=O)C[C@H]1CCN(C(=O)c2cc(C(F)(F)F)cc(C(F)(F)F)c2)[C@@H](Cc2ccccc2)C1.O=C(O)C[C@H](O)C(=O)O (relative stereo) [R116301, (2R-trans)-4-[1-[3,5-bis(trifluoromethyl)benzoyl]-2-(phenylmethyl)-4-piperidinyl]-N-(2,6-dimethylphenyl)-1-acetamide (S)-Hydroxybutanedioate]
selectivity toward NK(3) receptor [1]: over 200 fold | pKi [2]: 9.35 | selectivity toward NK(2) receptor [3]: over 200 fold

NC(=O)c1ncn([C@@H]2O[C@H](CO)[C@@H](O)[C@H]2O)c1N [Acadesine, 5-amino-4-imidazole carboxamide ribonucleoside]
safety in humans [4]: safe | pKi [5]: 3.44

OCCN(CCO)c1nc(N2CCCCC2)c2nc(N(CCO)CCO)nc(N3CCCCC3)c2n1 [Dipyridamole]
plasma level [6]: about 0.4 μg/ml | plasma level (concentration) [6]: ~800 nM

CSCC[C@@H]1NC(=O)[C@H](CC(C)C)NC(=O)[C@H](CCCNC(=N)N)NC(=O)[C@H](CO)NC(=O)[C@@H]2CSSC[C@@H]3NC(=O)[C@H](CO)NC(=O)CNC(=O)[C@H]([C@@H](C)O)NC(=O)[C@H](CSSC[C@H](N)C(=O)N[C@@H](CCCCN)C(=O)NCC(=O)N[C@@H](CCCCN)C(=O)NCC(=O)N[C@@H](C)C(=O)N[C@@H](CCCCN)C(=O)N2)NC(=O)[C@H](CSSC[C@@H](C(N)=O)NC(=O)[C@H](CCCCN)NC(=O)CNC(=O)[C@H](CO)NC(=O)[C@H](CCCNC(=N)N)NC3=O)NC(=O)[C@H](CC(=O)O)NC(=O)[C@H](Cc2ccc(O)cc2)NC1=O [Omega conotoxin MVIIA]
potency as an analgesic relative to morphine [7]: 100-1000 fold

Nc1ncnc2c1ncn2[C@@H]1O[C@H](CO)[C@@H](O)[C@H]1O [adenosine]
half life in the blood: about 10 seconds | animals that die during 30 min ischaemia from VF [8]: about 50%
